ChEMBL document CHEMBL1125961, “Monodeoxy-1,4:3,6-dianhydrohexitol nitrates” (1991)
The source made the active and inactive calls. The calls are words filed in the database; no cut-off is given here.

Tests used:
[1] = system: Rattus norvegicus; test: Compound was evaluated for T-wave increase of rat EKG measured as percent reduction after 30 min at a dosage of 200 mg/kg; format: functional
[2] = organism: Oryctolagus cuniculus; test: Compound was evaluated for reduction of arterial medium pressure of rabbit by 30 mm Hg; format: functional, Artery
[3] = system: Rattus norvegicus; test: Compound was evaluated for T-wave increase of rat EKG measured as percent reduction after 30 min at a dosage of 8 mg/kg; format: functional
[4] = system: Rattus norvegicus; test: Compound was evaluated for T-wave increase of rat EKG measured as percent reduction after 30 min at a dosage of 60 mg/kg; format: functional
[5] = system: Rattus norvegicus; test: Compound was evaluated for T-wave increase of rat EKG measured as percent reduction after 30 min at a dosage of 100 mg/kg; NE means no effect; format: functional, organism-based; set-up: dose 100 mg/kg
[6] = system: Rattus norvegicus; test: Compound was evaluated for T-wave increase of rat EKG measured as percent reduction after 30 min at a dosage of 4 mg/kg; format: functional
[7] = Oryctolagus cuniculus, Artery, read-out: ED30

Compound	ED30 [2, 7]	ED30 [2]	further results
O=[N+]([O-])OC1COC2CCOC21 (stereo in doubt; 6a)	0.6 mg/kg	–	Reduction ([1]; 200 mg/kg): -38%
O=[N+]([O-])O[C@@H]1CO[C@H]2[C@@H]1OC[C@@H]2O [ISOSORBIDE MONONITRATE]	–	0.31 mg/kg	Reduction [3]: -59%
O=[N+]([O-])OC1COC2C1OC[C@@H]2Cl (stereo in doubt; 5b) [listing 1 of 2 here]	–	0.14 mg/kg	–
O=[N+]([O-])OC1COC2C1OC[C@@H]2Cl (stereo in doubt; 5a)	0.1 mg/kg	–	Reduction [1]: -38%
O=[N+]([O-])OC1COC2CCOC21 (stereo in doubt; 6b)	–	1 mg/kg	Reduction ([1]; 200 mg/kg): -33%
O=[N+]([O-])OC1CO[C@@H]2C(O)CO[C@H]12 (single isomer, unassigned) [ISOSORBIDE MONONITRATE]	–	3.43 mg/kg	Reduction [4]: -43%
O=[N+]([O-])OC1COC2C1OC[C@@H]2Cl (stereo in doubt; 5b) [listing 2 of 2 here]	–	–	Reduction [5]: inactive
O=[N+]([O-])O[C@H]1CO[C@H]2[C@@H]1OC[C@H]2O[N+](=O)[O-] [ISOSORBIDE DINITRATE]	0.08 mg/kg	–	Reduction [6]: -75%
